Converted amounts (≈) assume the structure as drawn.
System: Aspergillus niger
Assay: Agar-plate minimum inhibitory concentration (Example 12)
Type: cell-based
Settings: agar, 72-120 hours, read-out: Minimum Inhibitory Concentration
Method: (§1) The test compound was added to molten agar as a solution (when conveniently soluble in a solvent such as dimethylformamide) or a suspension forming a mixture having a concentration of 0.05 percent (500 ppm). The mixture was stirred and poured into plates to harden. When hardened, the plates were inoculated with various bacteria and fungi. The bacteria-inoculated plates were incubated at 37° C. for 24 hours, while the fungi-inoculated plates were incubated for about 72-120 hours. Following incubation, the plates were examined for growth or inhibition of the respective organisms.
(§2) After the initial readings, compounds showing sufficient activity were re-tested at various concentrations to determine the minimum inhibitory concentration (in ppm) of the compounds of the invention against the various bacteria and fungi tested.

SMILES	MIC [µg/mL]
CCOC(=O)CNC(=O)Oc1c(Cl)cc(Cl)c2cccnc12 [Example 4, Ethyl N-(((5,7-dichloro-8-quinolinyl)oxy)carbonyl)glycinate]	10 (≈ 29.1 µM)
CCOC(=O)CNC(=O)Oc1ccc([N+](=O)[O-])c2cccnc12 [Example 5, Ethyl N-(((5-nitro-8-quinolinyl)oxy)carbonyl)glycinate]	50 (≈ 157 µM)

System: Bacillus subtilis
Assay: as above
Type: cell-based
Settings: agar, 37° C., 24 hours, read-out: Minimum Inhibitory Concentration
Method: as §1, §2

SMILES	MIC [µg/mL]
CCOC(=O)CNC(=O)Oc1c(Cl)cc(Cl)c2cccnc12 [Example 4, Ethyl N-(((5,7-dichloro-8-quinolinyl)oxy)carbonyl)glycinate]	1 (≈ 2.91 µM)
CCOC(=O)CNC(=O)Oc1ccc([N+](=O)[O-])c2cccnc12 [Example 5, Ethyl N-(((5-nitro-8-quinolinyl)oxy)carbonyl)glycinate]	5 (≈ 15.7 µM)

System: Candida albicans
Assay: as above
Type: cell-based
Settings: agar, 72-120 hours, read-out: Minimum Inhibitory Concentration
Method: as §1, §2

SMILES	MIC [µg/mL]
CCOC(=O)CNC(=O)Oc1c(Cl)cc(Cl)c2cccnc12 [Example 4, Ethyl N-(((5,7-dichloro-8-quinolinyl)oxy)carbonyl)glycinate]	10 (≈ 29.1 µM)
CCOC(=O)CNC(=O)Oc1ccc([N+](=O)[O-])c2cccnc12 [Example 5, Ethyl N-(((5-nitro-8-quinolinyl)oxy)carbonyl)glycinate]	50 (≈ 157 µM)

System: Candida pelliculosa
Assay: as above
Type: cell-based
Settings: Hansenula anomala; Candida pelliculosa; agar, 72-120 hours; read-out: Minimum Inhibitory Concentration
Method: as §1, §2

SMILES	MIC [µg/mL]
CCOC(=O)CNC(=O)Oc1c(Cl)cc(Cl)c2cccnc12 [Example 4, Ethyl N-(((5,7-dichloro-8-quinolinyl)oxy)carbonyl)glycinate]	5 (≈ 14.6 µM)
CCOC(=O)CNC(=O)Oc1ccc([N+](=O)[O-])c2cccnc12 [Example 5, Ethyl N-(((5-nitro-8-quinolinyl)oxy)carbonyl)glycinate]	50 (≈ 157 µM)

System: Ceratocystis ips
Assay: as above
Type: cell-based
Settings: Ceratocystis ips; agar, 72-120 hours; read-out: Minimum Inhibitory Concentration
Method: as §1, §2

SMILES	MIC [µg/mL]
CCOC(=O)CNC(=O)Oc1c(Cl)cc(Cl)c2cccnc12 [Example 4, Ethyl N-(((5,7-dichloro-8-quinolinyl)oxy)carbonyl)glycinate]	50 (≈ 146 µM)
CCOC(=O)CNC(=O)Oc1ccc([N+](=O)[O-])c2cccnc12 [Example 5, Ethyl N-(((5-nitro-8-quinolinyl)oxy)carbonyl)glycinate]	100 (≈ 313 µM)

System: Salmonella typhosa
Assay: as above
Type: cell-based
Settings: Salmonella enterica; Salmonella typhosa; agar, 37° C., 24 hours; read-out: Minimum Inhibitory Concentration
Method: as §1, §2

SMILES	MIC [µg/mL]
CCOC(=O)CNC(=O)Oc1c(Cl)cc(Cl)c2cccnc12 [Example 4, Ethyl N-(((5,7-dichloro-8-quinolinyl)oxy)carbonyl)glycinate]	10 (≈ 29.1 µM)
CCOC(=O)CNC(=O)Oc1ccc([N+](=O)[O-])c2cccnc12 [Example 5, Ethyl N-(((5-nitro-8-quinolinyl)oxy)carbonyl)glycinate]	5 (≈ 15.7 µM)

System: Streptococcus mutans
Assay: as above
Type: cell-based
Settings: agar, 37° C., 24 hours, read-out: Minimum Inhibitory Concentration
Method: as §1, §2

SMILES	MIC [µg/mL]
CCOC(=O)CNC(=O)Oc1c(Cl)cc(Cl)c2cccnc12 [Example 4, Ethyl N-(((5,7-dichloro-8-quinolinyl)oxy)carbonyl)glycinate]	500 (≈ 1460 µM)
CCOC(=O)CNC(=O)Oc1ccc([N+](=O)[O-])c2cccnc12 [Example 5, Ethyl N-(((5-nitro-8-quinolinyl)oxy)carbonyl)glycinate]	> 500

System: Trichophyton mentagrophytes
Assay: as above
Type: cell-based
Settings: agar, 72-120 hours, read-out: Minimum Inhibitory Concentration
Method: as §1, §2

SMILES	MIC [µg/mL]
CCOC(=O)CNC(=O)Oc1c(Cl)cc(Cl)c2cccnc12 [Example 4, Ethyl N-(((5,7-dichloro-8-quinolinyl)oxy)carbonyl)glycinate]	10 (≈ 29.1 µM)
CCOC(=O)CNC(=O)Oc1ccc([N+](=O)[O-])c2cccnc12 [Example 5, Ethyl N-(((5-nitro-8-quinolinyl)oxy)carbonyl)glycinate]	50 (≈ 157 µM)

System: Enterobacter aerogenes ATCC 13048
Assay: Minimum inhibitory concentration, urinary tract organisms (Example 13)
Type: cell-based
Settings: Klebsiella aerogenes, ATCC13048; Ea 13048; read-out: Minimum Inhibitory Concentration
Method: as §1, §2
(§3) Following a procedure substantially the same as that described in Example 12, the minimum inhibitory concentration for the compounds described herein was determined for various organisms representative of those commonly associated with urinary tract infections.
(§4) The organisms used in this procedure and the abbreviations designated in Table 3 are as follows: […]

SMILES	MIC [µg/mL]
CCOC(=O)CNC(=O)Oc1c(Cl)cc(Cl)c2cccnc12 [Example 4, Ethyl N-(((5,7-dichloro-8-quinolinyl)oxy)carbonyl)glycinate]	25 (≈ 72.9 µM)
CCOC(=O)CNC(=O)Oc1ccc([N+](=O)[O-])c2cccnc12 [Example 5, Ethyl N-(((5-nitro-8-quinolinyl)oxy)carbonyl)glycinate]	25 (≈ 78.3 µM)

System: Escherichia coli ATCC 11229
Assay: as above
Type: cell-based
Settings: ATCC11229, Ec 11229, read-out: Minimum Inhibitory Concentration
Method: as §1, §2, §3, §4

SMILES	MIC [µg/mL]
CCOC(=O)CNC(=O)Oc1c(Cl)cc(Cl)c2cccnc12 [Example 4, Ethyl N-(((5,7-dichloro-8-quinolinyl)oxy)carbonyl)glycinate]	10 (≈ 29.1 µM)
CCOC(=O)CNC(=O)Oc1ccc([N+](=O)[O-])c2cccnc12 [Example 5, Ethyl N-(((5-nitro-8-quinolinyl)oxy)carbonyl)glycinate]	25 (≈ 78.3 µM)

System: Escherichia coli ATCC 25922
Assay: as above
Type: cell-based
Settings: ATCC25922, Ec 25922, read-out: Minimum Inhibitory Concentration
Method: as §1, §2, §3, §4

SMILES	MIC [µg/mL]
CCOC(=O)CNC(=O)Oc1c(Cl)cc(Cl)c2cccnc12 [Example 4, Ethyl N-(((5,7-dichloro-8-quinolinyl)oxy)carbonyl)glycinate]	10 (≈ 29.1 µM)
CCOC(=O)CNC(=O)Oc1ccc([N+](=O)[O-])c2cccnc12 [Example 5, Ethyl N-(((5-nitro-8-quinolinyl)oxy)carbonyl)glycinate]	10 (≈ 31.3 µM)

System: Escherichia coli ATCC 4157
Assay: as above
Type: cell-based
Settings: ATCC4157, Ec 4157, read-out: Minimum Inhibitory Concentration
Method: as §1, §2, §3, §4

SMILES	MIC [µg/mL]
CCOC(=O)CNC(=O)Oc1c(Cl)cc(Cl)c2cccnc12 [Example 4, Ethyl N-(((5,7-dichloro-8-quinolinyl)oxy)carbonyl)glycinate]	10 (≈ 29.1 µM)
CCOC(=O)CNC(=O)Oc1ccc([N+](=O)[O-])c2cccnc12 [Example 5, Ethyl N-(((5-nitro-8-quinolinyl)oxy)carbonyl)glycinate]	25 (≈ 78.3 µM)

System: Escherichia coli ATCC 9723
Assay: as above
Type: cell-based
Settings: ATCC9723, Ec 9723, read-out: Minimum Inhibitory Concentration
Method: as §1, §2, §3, §4

SMILES	MIC [µg/mL]
CCOC(=O)CNC(=O)Oc1c(Cl)cc(Cl)c2cccnc12 [Example 4, Ethyl N-(((5,7-dichloro-8-quinolinyl)oxy)carbonyl)glycinate]	10 (≈ 29.1 µM)
CCOC(=O)CNC(=O)Oc1ccc([N+](=O)[O-])c2cccnc12 [Example 5, Ethyl N-(((5-nitro-8-quinolinyl)oxy)carbonyl)glycinate]	25 (≈ 78.3 µM)

System: Klebsiella pneumoniae ATCC 23357
Assay: as above
Type: cell-based
Settings: ATCC23357, Kp 23357, read-out: Minimum Inhibitory Concentration
Method: as §1, §2, §3, §4

SMILES	MIC [µg/mL]
CCOC(=O)CNC(=O)Oc1c(Cl)cc(Cl)c2cccnc12 [Example 4, Ethyl N-(((5,7-dichloro-8-quinolinyl)oxy)carbonyl)glycinate]	25 (≈ 72.9 µM)
CCOC(=O)CNC(=O)Oc1ccc([N+](=O)[O-])c2cccnc12 [Example 5, Ethyl N-(((5-nitro-8-quinolinyl)oxy)carbonyl)glycinate]	10 (≈ 31.3 µM)

System: Klebsiella pneumoniae M-1
Assay: as above
Type: cell-based
Settings: M1, Kp M-1, read-out: Minimum Inhibitory Concentration
Method: as §1, §2, §3, §4

SMILES	MIC [µg/mL]
CCOC(=O)CNC(=O)Oc1c(Cl)cc(Cl)c2cccnc12 [Example 4, Ethyl N-(((5,7-dichloro-8-quinolinyl)oxy)carbonyl)glycinate]	25 (≈ 72.9 µM)
CCOC(=O)CNC(=O)Oc1ccc([N+](=O)[O-])c2cccnc12 [Example 5, Ethyl N-(((5-nitro-8-quinolinyl)oxy)carbonyl)glycinate]	25 (≈ 78.3 µM)

System: Klebsiella pneumoniae M-2
Assay: as above
Type: cell-based
Settings: M2, Kp M-2, read-out: Minimum Inhibitory Concentration
Method: as §1, §2, §3, §4

SMILES	MIC [µg/mL]
CCOC(=O)CNC(=O)Oc1c(Cl)cc(Cl)c2cccnc12 [Example 4, Ethyl N-(((5,7-dichloro-8-quinolinyl)oxy)carbonyl)glycinate]	25 (≈ 72.9 µM)
CCOC(=O)CNC(=O)Oc1ccc([N+](=O)[O-])c2cccnc12 [Example 5, Ethyl N-(((5-nitro-8-quinolinyl)oxy)carbonyl)glycinate]	25 (≈ 78.3 µM)

System: Klebsiella pneumoniae M-6
Assay: as above
Type: cell-based
Settings: M6, Kp M-6, read-out: Minimum Inhibitory Concentration
Method: as §1, §2, §3, §4

SMILES	MIC [µg/mL]
CCOC(=O)CNC(=O)Oc1c(Cl)cc(Cl)c2cccnc12 [Example 4, Ethyl N-(((5,7-dichloro-8-quinolinyl)oxy)carbonyl)glycinate]	25 (≈ 72.9 µM)
CCOC(=O)CNC(=O)Oc1ccc([N+](=O)[O-])c2cccnc12 [Example 5, Ethyl N-(((5-nitro-8-quinolinyl)oxy)carbonyl)glycinate]	25 (≈ 78.3 µM)

System: Proteus mirabilis 470/1
Assay: as above
Type: cell-based
Settings: Pm 470/1, read-out: Minimum Inhibitory Concentration
Method: as §1, §2, §3, §4

SMILES	MIC [µg/mL]
CCOC(=O)CNC(=O)Oc1c(Cl)cc(Cl)c2cccnc12 [Example 4, Ethyl N-(((5,7-dichloro-8-quinolinyl)oxy)carbonyl)glycinate]	10 (≈ 29.1 µM)
CCOC(=O)CNC(=O)Oc1ccc([N+](=O)[O-])c2cccnc12 [Example 5, Ethyl N-(((5-nitro-8-quinolinyl)oxy)carbonyl)glycinate]	10 (≈ 31.3 µM)

System: Pseudomonas aeruginosa ATCC 10145
Assay: as above
Type: cell-based
Settings: ATCC10145, Pa 10145, read-out: Minimum Inhibitory Concentration
Method: as §1, §2, §3, §4

SMILES	MIC [µg/mL]
CCOC(=O)CNC(=O)Oc1c(Cl)cc(Cl)c2cccnc12 [Example 4, Ethyl N-(((5,7-dichloro-8-quinolinyl)oxy)carbonyl)glycinate]	10 (≈ 29.1 µM)
CCOC(=O)CNC(=O)Oc1ccc([N+](=O)[O-])c2cccnc12 [Example 5, Ethyl N-(((5-nitro-8-quinolinyl)oxy)carbonyl)glycinate]	25 (≈ 78.3 µM)

System: Pseudomonas aeruginosa ATCC 27853
Assay: as above
Type: cell-based
Settings: ATCC27853, Pa 27853, read-out: Minimum Inhibitory Concentration
Method: as §1, §2, §3, §4

SMILES	MIC [µg/mL]
CCOC(=O)CNC(=O)Oc1c(Cl)cc(Cl)c2cccnc12 [Example 4, Ethyl N-(((5,7-dichloro-8-quinolinyl)oxy)carbonyl)glycinate]	50 (≈ 146 µM)
CCOC(=O)CNC(=O)Oc1ccc([N+](=O)[O-])c2cccnc12 [Example 5, Ethyl N-(((5-nitro-8-quinolinyl)oxy)carbonyl)glycinate]	75 (≈ 235 µM)

System: Pseudomonas aeruginosa ATCC 7700
Assay: as above
Type: cell-based
Settings: ATCC7700, Pa 7700, read-out: Minimum Inhibitory Concentration
Method: as §1, §2, §3, §4

SMILES	MIC [µg/mL]
CCOC(=O)CNC(=O)Oc1c(Cl)cc(Cl)c2cccnc12 [Example 4, Ethyl N-(((5,7-dichloro-8-quinolinyl)oxy)carbonyl)glycinate]	50 (≈ 146 µM)
CCOC(=O)CNC(=O)Oc1ccc([N+](=O)[O-])c2cccnc12 [Example 5, Ethyl N-(((5-nitro-8-quinolinyl)oxy)carbonyl)glycinate]	100 (≈ 313 µM)

System: Pseudomonas aeruginosa PRD-10
Assay: as above
Type: cell-based
Settings: PRD10, Pa PRD-10, read-out: Minimum Inhibitory Concentration
Method: as §1, §2, §3, §4

SMILES	MIC [µg/mL]
CCOC(=O)CNC(=O)Oc1c(Cl)cc(Cl)c2cccnc12 [Example 4, Ethyl N-(((5,7-dichloro-8-quinolinyl)oxy)carbonyl)glycinate]	50 (≈ 146 µM)
CCOC(=O)CNC(=O)Oc1ccc([N+](=O)[O-])c2cccnc12 [Example 5, Ethyl N-(((5-nitro-8-quinolinyl)oxy)carbonyl)glycinate]	50 (≈ 157 µM)

System: Serratia marcescens M-1
Assay: as above
Type: cell-based
Settings: M1, Sr M-1, read-out: Minimum Inhibitory Concentration
Method: as §1, §2, §3, §4

SMILES	MIC [µg/mL]
CCOC(=O)CNC(=O)Oc1c(Cl)cc(Cl)c2cccnc12 [Example 4, Ethyl N-(((5,7-dichloro-8-quinolinyl)oxy)carbonyl)glycinate]	25 (≈ 72.9 µM)
CCOC(=O)CNC(=O)Oc1ccc([N+](=O)[O-])c2cccnc12 [Example 5, Ethyl N-(((5-nitro-8-quinolinyl)oxy)carbonyl)glycinate]	50 (≈ 157 µM)

System: Staphylococcus aureus ATCC 25923
Assay: as above
Type: cell-based
Settings: ATCC25923, Sa 25923, read-out: Minimum Inhibitory Concentration
Method: as §1, §2, §3, §4

SMILES	MIC [µg/mL]
CCOC(=O)CNC(=O)Oc1c(Cl)cc(Cl)c2cccnc12 [Example 4, Ethyl N-(((5,7-dichloro-8-quinolinyl)oxy)carbonyl)glycinate]	10 (≈ 29.1 µM)
CCOC(=O)CNC(=O)Oc1ccc([N+](=O)[O-])c2cccnc12 [Example 5, Ethyl N-(((5-nitro-8-quinolinyl)oxy)carbonyl)glycinate]	25 (≈ 78.3 µM)
